Results as given in ChEMBL document CHEMBL1201862, “PubChem BioAssay data set” (2004).
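How tested: cells in 96-well plates exposed to compound for 48 hours at five concentrations. At the GI50, growth is halved.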 Calls of active or inactive are those of the source. Rule as the data show it: active = GI50 up to about 1.1 µM and inactive = higher.

Assays:
Assay in all cases: growth of human tumour cells (NCI), 48 h
786-0 = test system: 786-0
A498 = test system: A498
A549 = test system: A549
ACHN = test system: ACHN
BT-549 = test system: BT-549
CAKI-1 = test system: CAKI-1
CCRF-CEM = test system: CCRF-CEM
COLO 205 = test system: COLO 205
DU-145 = test system: DU-145
HCT-116 = test system: HCT-116
HCT-15 = test system: HCT-15
HL-60 = test system: HL-60
HOP-62 = test system: HOP-62
HOP-92 = test system: HOP-92
HT-29 = test system: HT-29
Hs-578T = test system: Hs-578T
K562 = test system: K562
KM12 = test system: KM12
LOX IMVI = test system: LOX IMVI
M14 = test system: M14
MCF7 = test system: MCF7
MDA-MB-231 = test system: MDA-MB-231
MDA-MB-435 = test system: MDA-MB-435
MDA-N = test system: MDA-N
MOLT-4 = test system: MOLT-4
Malme-3M = test system: Malme-3M
NCI-H226 = test system: NCI-H226
NCI-H23 = test system: NCI-H23
NCI-H460 = test system: NCI-H460
NCI-H522 = test system: NCI-H522
NCI/ADR-RES = test system: NCI/ADR-RES
OVCAR-3 = test system: OVCAR-3
OVCAR-4 = test system: OVCAR-4
OVCAR-5 = test system: OVCAR-5
OVCAR-8 = test system: OVCAR-8
PC-3 = test system: PC-3
RPMI-8226 = test system: RPMI-8226
RXF 393 = test system: RXF 393
SF-268 = test system: SF-268
SF-295 = test system: SF-295
SK-MEL-28 = test system: SK-MEL-28
SK-MEL-2 = test system: SK-MEL-2
SK-MEL-5 = test system: SK-MEL-5
SN12C = test system: SN12C
SNB-19 = test system: SNB-19
SW-620 = test system: SW-620
T47D = test system: T47D
TK-10 = test system: TK-10
U-251 = test system: U-251
UACC-257 = test system: UACC-257
UACC-62 = test system: UACC-62
UO-31 = test system: UO-31
EKVX = test system: EKVX
IGROV-1 = test system: IGROV-1
SF-539 = test system: SF-539
SK-OV-3 = test system: SK-OV-3
SNB-75 = test system: SNB-75
HCC 2998 = test system: HCC 2998
SR = test system: SR

Measured: GI50

O=C1NC(=S)NC(=O)C1C(c1ccccc1[N+](=O)[O-])C1C(=O)NC(=S)NC1=O.c1ccncc1
> 100 µM: HCT-15
inactive: 786-0 > 100 µM | A498 > 100 µM | A549 > 100 µM | ACHN > 100 µM | BT-549 > 100 µM | CAKI-1 > 100 µM | CCRF-CEM > 100 µM | COLO 205 > 100 µM | DU-145 > 100 µM | HCT-116 > 100 µM | HL-60 26.3 µM | HOP-62 > 100 µM | HOP-92 > 100 µM | HT-29 > 100 µM | Hs-578T > 100 µM | K562 > 100 µM | KM12 > 100 µM | LOX IMVI > 100 µM | M14 > 100 µM | MCF7 > 100 µM | MDA-MB-231 > 100 µM | MDA-MB-435 > 100 µM | MDA-N > 100 µM | MOLT-4 > 100 µM | Malme-3M > 100 µM | NCI-H226 > 100 µM | NCI-H23 > 100 µM | NCI-H460 > 100 µM | NCI-H522 > 100 µM | NCI/ADR-RES > 100 µM | OVCAR-3 > 100 µM | OVCAR-4 > 100 µM | OVCAR-5 > 100 µM | OVCAR-8 > 100 µM | PC-3 > 100 µM | RPMI-8226 > 100 µM | RXF 393 > 100 µM | SF-268 > 100 µM | SF-295 > 100 µM | SK-MEL-28 > 100 µM | SK-MEL-2 > 100 µM | SK-MEL-5 > 100 µM | SN12C > 100 µM | SNB-19 > 100 µM | SW-620 > 100 µM | T47D > 100 µM | TK-10 > 100 µM | U-251 > 100 µM | UACC-257 > 100 µM | UACC-62 > 100 µM | UO-31 > 100 µM

NC(=O)CCC(CCC(N)=O)(CCC(N)=O)[N+](=O)[O-]
> 100 µM: HCT-15
inactive: 786-0 > 100 µM | A549 > 100 µM | ACHN > 100 µM | BT-549 > 100 µM | CAKI-1 > 100 µM | CCRF-CEM > 10 µM | COLO 205 > 100 µM | DU-145 > 100 µM | EKVX > 100 µM | HCT-116 > 100 µM | HL-60 > 100 µM | HOP-92 > 100 µM | HT-29 > 100 µM | Hs-578T > 100 µM | IGROV-1 > 100 µM | KM12 > 100 µM | M14 > 100 µM | MCF7 > 100 µM | MDA-MB-231 > 100 µM | MDA-MB-435 > 100 µM | MDA-N > 100 µM | MOLT-4 > 100 µM | Malme-3M > 100 µM | NCI-H226 25.4 µM | NCI-H23 > 100 µM | NCI-H460 > 100 µM | NCI-H522 65.9 µM | NCI/ADR-RES > 100 µM | OVCAR-5 > 100 µM | OVCAR-8 > 100 µM | PC-3 > 100 µM | RPMI-8226 > 100 µM | RXF 393 > 100 µM | SF-268 > 100 µM | SF-295 > 100 µM | SF-539 > 100 µM | SK-MEL-2 > 100 µM | SK-MEL-5 > 100 µM | SK-OV-3 > 100 µM | SN12C > 100 µM | SNB-19 60.8 µM | SNB-75 > 100 µM | SW-620 > 100 µM | T47D > 100 µM | TK-10 > 100 µM | U-251 > 100 µM | UACC-257 > 100 µM | UACC-62 > 100 µM | UO-31 > 100 µM

C/C(=N\O)c1ccc2cc(Br)c3ccccc3c2c1
inactive: 786-0 15.1 µM | A498 17.7 µM | A549 37 µM | ACHN 23.6 µM | BT-549 27.5 µM | CAKI-1 25.1 µM | CCRF-CEM 17.5 µM | DU-145 39.4 µM | EKVX 19.1 µM | HCC 2998 14.6 µM | HCT-116 11.9 µM | HL-60 20.7 µM | HOP-62 20.2 µM | HOP-92 21 µM | HT-29 2.89 µM | Hs-578T 23.9 µM | IGROV-1 28 µM | K562 46.8 µM | KM12 15.6 µM | LOX IMVI 15.6 µM | M14 18.2 µM | MCF7 17.2 µM | MDA-MB-231 15.3 µM | MDA-MB-435 24.2 µM | MDA-N 15.7 µM | Malme-3M 19.8 µM | NCI-H23 20 µM | NCI-H460 16.2 µM | NCI-H522 15.1 µM | NCI/ADR-RES 19.9 µM | OVCAR-3 16.9 µM | OVCAR-4 61.5 µM | OVCAR-5 11.5 µM | OVCAR-8 24.8 µM | RPMI-8226 17 µM | RXF 393 14.8 µM | SF-268 26.2 µM | SF-295 15.6 µM | SK-MEL-28 19.3 µM | SK-MEL-2 15.8 µM | SK-MEL-5 16.8 µM | SK-OV-3 32.3 µM | SN12C 14.8 µM | SNB-19 33.4 µM | SNB-75 28.1 µM | SR 24.6 µM | SW-620 23.1 µM | T47D 22.5 µM | TK-10 20.3 µM | U-251 14.6 µM | UACC-257 16.9 µM | UACC-62 17.7 µM | UO-31 15.7 µM
16 µM: HCT-15
